Source: patent publication US12162872B2, “Cycloalkylurea derivative” (Sumitomo Pharma Co., Ltd., priority 2019, dated 2024)

What follows are molecules tested against T1, Human orexin receptor type 2 (Homo sapiens, UniProt O43614) (assay: Test 2: Evaluation of agonist activity for orexin receptor type 2 (aequorin luminescence, intracellular calcium mobilization in CHO cells)). Details: relative percentage of luminescence for the luminescence (100%) of Orexin A (100 pM); CHO cells transiently expressing human orexin receptor type 2 and apoaequorin; Orexin A Lot. 671009.
T1 construct: expressed in transfected cells; host or cells: CHO cells (transient expression)
T1 sequence (O43614 1-444): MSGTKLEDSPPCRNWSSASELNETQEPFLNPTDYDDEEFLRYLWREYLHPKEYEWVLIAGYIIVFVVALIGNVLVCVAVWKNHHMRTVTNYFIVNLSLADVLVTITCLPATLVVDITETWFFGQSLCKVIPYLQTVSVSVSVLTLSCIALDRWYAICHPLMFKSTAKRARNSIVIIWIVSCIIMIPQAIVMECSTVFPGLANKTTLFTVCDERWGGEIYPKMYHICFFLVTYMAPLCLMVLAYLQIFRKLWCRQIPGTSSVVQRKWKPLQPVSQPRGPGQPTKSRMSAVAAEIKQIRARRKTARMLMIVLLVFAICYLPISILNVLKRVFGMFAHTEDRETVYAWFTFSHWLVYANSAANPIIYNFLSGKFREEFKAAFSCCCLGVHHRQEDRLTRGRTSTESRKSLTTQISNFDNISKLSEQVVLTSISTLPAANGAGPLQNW
Assay type: cell-based
In short: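 CHO cells transiently co-expressing the receptor and apoaequorin, incubated 16–22 h, were loaded 2 h at room temperature with 1 μM coelenterazine hcp (final). Compounds in Hanks/20 mM HEPES/0.1% BSA (0.1% DMSO final) were added and the calcium luminescence was read and expressed as % of Orexin A (100 pM).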

Row | SMILES | agonist activity (%)
1 | CC(C)N1CC(O[C@H]2CCCC(F)(F)[C@@H]2NC(=O)N2CCC(C)(c3noc([C@@H]4C[C@@H]4F)n3)CC2)C1 [Example 89, N-[(1R,6S)-2,2-difluoro-6-{[1-(propan-2-yl)azetidin-3-yl]oxy}cyclohexyl]-4-{5-[(1S,2S)-2-fluorocyclopropyl]-1,2,4-oxadiazol-3-yl}-4-methylpiperidine-1-carboxamide] | 0%
2 | CC1(CN2CC[C@H](O[C@H]3CCCC(F)(F)[C@@H]3NC(=O)N3CCC(C)(c4noc([C@@H]5C[C@@H]5F)n4)CC3)C2)CC1 [Example 121, N-[(1R,6S)-2,2-difluoro-6-({(3S)-1-[(1-methylcyclopropyl)methyl]pyrrolidin-3-yl}oxy)cyclohexyl]-4-{5-[(1S,2S)-2-fluorocyclopropyl]-1,2,4-oxadiazol-3-yl}-4-methylpiperidine-1-carboxamide] | 379%
3 | CC1(c2noc([C@@H]3C[C@@H]3F)n2)CCN(C(=O)N[C@@H]2[C@@H](O[C@H]3CCN(CC4(C(F)(F)F)CC4)C3)CCCC2(F)F)CC1 [Example 135, N-[(1R,6S)-2,2-difluoro-6-{[(3S)-1-{[1-(trifluoromethyl)cyclopropyl]methyl}pyrrolidin-3-yl]oxy}cyclohexyl]-4-{5-[(1S,2S)-2-fluorocyclopropyl]-1,2,4-oxadiazol-3-yl}-4-methylpiperidine-1-carboxamide] | 396%
4 | CC(C)(F)CN1CC[C@H](O[C@H]2CCCC(F)(F)[C@@H]2NC(=O)N2CCC(C)(c3noc([C@@H]4C[C@@H]4F)n3)CC2)C1 [Example 143, N-[(1R,6S)-2,2-difluoro-6-{[(3S)-1-(2-fluoro-2-methylpropyl)pyrrolidin-3-yl]oxy}cyclohexyl]-4-{5-[(1S,2S)-2-fluorocyclopropyl]-1,2,4-oxadiazol-3-yl}-4-methylpiperidine-1-carboxamide] | 444%
5 | CC(C)N1CCN([C@@H]2CCCC(F)(F)[C@H]2NC(=O)N2CCC(C)(c3noc([C@H]4C[C@H]4F)n3)CC2)CC1 [Example 82, N-{(1S,6R)-2,2-difluoro-6-[4-(propan-2-yl)piperazin-1-yl]cyclohexyl}-4-{5-[(1R,2R)-2-fluorocyclopropyl]-1,2,4-oxadiazol-3-yl}-4-methylpiperidine-1-carboxamide] | 69%
6 | CN(CC1CC1)[C@H]1CCN([C@H]2CCCC(F)(F)[C@@H]2NC(=O)N2CCC(C)(c3noc(C4CC4)n3)CC2)C1 [Example 138, N-[(1R,6S)-6-{(3S)-3-[(cyclopropylmethyl)(methyl)amino]pyrrolidin-1-yl}-2,2-difluorocyclohexyl]-4-(5-cyclopropyl-1,2,4-oxadiazol-3-yl)-4-methylpiperidine-1-carboxamide] | 385%
7 | CO[C@@H]1CN(C(C)C)C[C@H]1O[C@H]1CCCC(F)(F)[C@@H]1NC(=O)N1CCC(C)(c2noc([C@@H]3C[C@@H]3F)n2)CC1 [Example 108, N-[(1R,6S)-2,2-difluoro-6-{[(3R,4R)-4-methoxy-1-(propan-2-yl)pyrrolidin-3-yl]oxy}cyclohexyl]-4-{5-[(1S,2S)-2-fluorocyclopropyl]-1,2,4-oxadiazol-3-yl}-4-methylpiperidine-1-carboxamide] | 292%
8 | CC(C)N1[C@@H]2CC[C@H]1C[C@@H](O[C@H]1CCCC(F)(F)[C@@H]1NC(=O)N1CCC(C)(c3noc([C@@H]4C[C@@H]4F)n3)CC1)C2 [Example 105, N-[(1R,6S)-2,2-difluoro-6-{[(1R,3R,5S)-8-(propan-2-yl)-8-azabicyclo[3.2.1]octan-3-yl]oxy}cyclohexyl]-4-{5-[(1S,2S)-2-fluorocyclopropyl]-1,2,4-oxadiazol-3-yl}-4-methylpiperidine-1-carboxamide] | 359%
9 | CC(C)N1CC[C@@H](N(C)[C@H]2CCCC(F)(F)[C@@H]2NC(=O)N2CCC(C)(c3noc([C@@H]4C[C@@H]4F)n3)CC2)C1 [Example 113, N-[(1R,6S)-2,2-difluoro-6-{methyl[(3R)-1-(propan-2-yl)pyrrolidin-3-yl]amino}cyclohexyl]-4-{5-[(1S,2S)-2-fluorocyclopropyl]-1,2,4-oxadiazol-3-yl}-4-methylpiperidine-1-carboxamide] | 374%

Continued, values first:

Row | agonist activity (%) | SMILES
10 | 399% | CN(CC1CC1)[C@H]1CCCN([C@H]2CCCC(F)(F)[C@@H]2NC(=O)N2CCC(C)(c3noc([C@@H]4C[C@@H]4F)n3)CC2)CC1 [Example 144, N-[(1R,6S)-6-{(4S)-4-[(cyclopropylmethyl)(methyl)amino]azepan-1-yl}-2,2-difluorocyclohexyl]-4-{5-[(1S,2S)-2-fluorocyclopropyl]-1,2,4-oxadiazol-3-yl}-4-methylpiperidine-1-carboxamide]
11 | 380% | CC(C)N1CCN([C@H]2CCCC(F)(F)[C@@H]2NC(=O)N2CCC(C)(c3noc([C@@H]4C[C@@H]4F)n3)CC2)[C@@H](C)C1 [Example 110, N-{(1R,6S)-2,2-difluoro-6-[(2S)-2-methyl-4-(propan-2-yl)piperazin-1-yl]cyclohexyl}-4-{5-[(1S,2S)-2-fluorocyclopropyl]-1,2,4-oxadiazol-3-yl}-4-methylpiperidine-1-carboxamide]
12 | 167% | CC(C)N1CCC(S(=O)(=O)[C@H]2CCCC(F)(F)[C@@H]2NC(=O)N2CCC(C)(c3noc([C@@H]4C[C@@H]4F)n3)CC2)CC1 [Example 155, N-{(1S,6S)-2,2-difluoro-6-[1-(propan-2-yl)piperidine-4-sulfonyl]cyclohexyl}-4-{5-[(1S,2S)-2-fluorocyclopropyl]-1,2,4-oxadiazol-3-yl}-4-methylpiperidine-1-carboxamide]
13 | 367% | CC(C)N1CCC2(CCN([C@H]3CCCC(F)(F)[C@@H]3NC(=O)N3CCC(C)(c4noc([C@@H]5C[C@@H]5F)n4)CC3)CC2)C1 [Example 127, N-{(1R,6S)-2,2-difluoro-6-[2-(propan-2-yl)-2,8-diazaspiro[4.5]decan-8-yl]cyclohexyl}-4-{5-[(1S,2S)-2-fluorocyclopropyl]-1,2,4-oxadiazol-3-yl}-4-methylpiperidine-1-carboxamide]
14 | 402% | CC(C)N1CC2CN([C@H]3CCCC(F)(F)[C@@H]3NC(=O)N3CCC(C)(c4noc([C@@H]5C[C@@H]5F)n4)CC3)CC2C1 (stereo partly drawn) [Example 125, N-{(1R,6S)-2,2-difluoro-6-[5-(propan-2-yl)hexahydropyrrolo[3,4-c]pyrrol-2(1H)-yl]cyclohexyl}-4-{5-[(1S,2S)-2-fluorocyclopropyl]-1,2,4-oxadiazol-3-yl}-4-methylpiperidine-1-carboxamide]
15 | 369% | CCC1(c2noc([C@@H]3C[C@@H]3F)n2)CCN(C(=O)N[C@@H]2[C@@H](O[C@H]3CCN(C(C)C)C3)CCCC2(F)F)CC1 [Example 103, N-[(1R,6S)-2,2-difluoro-6-{[(3S)-1-(propan-2-yl)pyrrolidin-3-yl]oxy}cyclohexyl]-4-ethyl-4-{5-[(1S,2S)-2-fluorocyclopropyl]-1,2,4-oxadiazol-3-yl}piperidine-1-carboxamide]
16 | 392% | CC(C)CN(C)C1CCN([C@H]2CCCC(F)(F)[C@@H]2NC(=O)N2CCC(C)(c3noc([C@@H]4C[C@@H]4F)n3)CC2)CC1 [Example 157, N-[(1R,6S)-2,2-difluoro-6-{4-[methyl(2-methylpropyl)amino]piperidin-1-yl}cyclohexyl]-4-{5-[(1S,2S)-2-fluorocyclopropyl]-1,2,4-oxadiazol-3-yl}-4-methylpiperidine-1-carboxamide]
